Assay results published in patent US20050249714A1, “Method of using secretin and compositions made therefrom for the treatment of autism and other neurological, behavioral and immunological disorders” (Repligen Corporation, a Massachusetts corporation, priority 1997, published 2005).
No end group written: not given here.

Experiments:
[1] = system: patient, a child with symptoms of autism; test: Intravenous secretin infusion in a child with symptoms of autism (Example 1); assay type: in vivo, human
Method: The present invention will be better understood from the following examples which are given by way of illustration and not by way of limitation. The patient, the same in both examples, is a child with symptoms of autism.
When the patient was […], the secretin was administered by way of an infusion as part of an upper gastrointestinal endoscopy. The secretin was used in this diagnostic procedure at the request of the patient's parents, one of which is an inventor of the present invention. The secretin used in this procedure is known as Secretin-Ferring available from Ferring Laboratories, Inc., Suffern, N.Y. (See Appendix A). The secretin was dissolved in a […] solution of sodium chloride and administered in a dosage of 2 clinical units (CU) per kilogram (kg) body weight by intravenous injection over one minute. (I.E. 30 IU IV for approximately 15 kilograms of body weight.)
The diagnostic tests performed on the patient during this procedure also indicated gastric inflammation. […] The following Table I summarizes the improvements observed in the patient within 3 weeks after the infusion of secretin.
Biomedical changes were also measured in the patient.
At the request of the patient's parents, a second infusion of secretin was performed about 9 months after the first infusion, and a third infusion of secretin was performed about three months after the second infusion.

[2] = system: patient, a child with symptoms of autism; test: Daily transdermal secretin with DMSO in the same patient (Example 2); assay type: in vivo, human; details: about 15 CU daily
Method: At the time of this treatment, the patient was […]. Secretin was administered transdermally using pharmaceutical grade dimethyl sulfoxide (DMSO) (generally 99.9% pure) available from Clinic Service Co., Box 2512, Hemet Calif. 92543. The secretin (Secretin-Ferring) was administered daily in a dosage of about 75 CU over a five day period (i.e., about 15 CU daily) For each treatment, about 4 drops of DMSO were placed onto the skin of the patient, about 15 CU of the crystalline secretin was placed onto the DMSO, and the composition was rubbed into the skin.

abnormal opioid peptides = details: autistic children responding to casein free and gluten free diet, after the secretin infusion; cited from earlier work

secretin (HSDGTFTSELSRLRDSARLQRLLQGLV-NH2; ends and bridges not checked; UniProt P63298 33-59, looked up) [polypeptide hormone secreted by the mucosa of the duodenum and upper jejunum; used as Secretin-Ferring from Ferring Laboratories]
time at which the rate of the patient's progress appeared to decrease ([1]; after the first infusion): about 5 weeks | perfusion of the right posterior parietal and right temporal lobes (SPECT scan) ([1]; after the treatment): improved | results of second and third infusions ([1]; second infusion about 9 months after the first, third about three months after the second): achieved the same results | imitation of commands ([1]; within 3 weeks after infusion, before: did not imitate): Will imitate almost any multi-step command. | diet preferences ([1]; within 3 weeks after infusion, before: limited diet preferences): No Change | connections made between language and objects ([1]; within 3 weeks after infusion, before: no apparent connections): Many connections made between new language | interaction with videos ([1]; within 3 weeks after infusion, before: watch videos): Now, gets “involved” interactively with their videos. | chronic abnormal bowel movements ([1]; within days after the administration, no change in diet): became normal | overall improvements [2]: even more dramatic and significant improvements | abnormal opioid peptides (abnormal opioid peptides): the peptides disappeared
